Among the data in ChEMBL document CHEMBL1795249, “Triazole-linked reduced amide isosteres: an approach for the fragment-based drug discovery of anti-Alzheimer's BACE1 inhibitors” (Bioorg Med Chem Lett, 2011) are IC50 values, retold here.

The experiment deals with Beta-secretase 1 (Homo sapiens, UniProt P56817). Description: Inhibition of BACE1 by cell-free FRET assay.
Beta-secretase 1, sequence (P56817 whole entry): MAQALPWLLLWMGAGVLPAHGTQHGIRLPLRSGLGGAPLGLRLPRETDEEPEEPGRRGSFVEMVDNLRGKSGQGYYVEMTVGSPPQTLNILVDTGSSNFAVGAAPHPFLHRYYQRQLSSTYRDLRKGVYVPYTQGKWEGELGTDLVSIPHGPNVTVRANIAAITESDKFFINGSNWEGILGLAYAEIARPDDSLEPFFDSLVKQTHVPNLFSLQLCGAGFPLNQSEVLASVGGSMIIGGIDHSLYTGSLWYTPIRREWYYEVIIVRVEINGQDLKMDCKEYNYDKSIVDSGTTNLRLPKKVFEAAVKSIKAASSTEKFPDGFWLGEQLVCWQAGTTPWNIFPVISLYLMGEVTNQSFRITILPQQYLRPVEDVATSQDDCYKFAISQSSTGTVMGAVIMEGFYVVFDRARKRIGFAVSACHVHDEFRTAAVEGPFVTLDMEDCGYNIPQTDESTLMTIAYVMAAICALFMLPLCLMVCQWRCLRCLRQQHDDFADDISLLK

The IC50 is the point on the concentration scale where inhibition reaches its midpoint. High values mean a need for much substance, low ones inhibition by little substance. Turning to `COc1cccc(CNC[C@H](Cc2ccccc2)n2cc(-c3cc(C(=O)N[C@H](C)c4ccccc4)cc(N(C)S(C)(=O)=O)c3)nn2)c1`, the IC50 is 7000 nM. With `C[C@@H](NC(=O)c1cc(-c2cn([C@H](CNCc3cccc(Br)c3)Cc3ccccc3)nn2)cc(N(C)S(C)(=O)=O)c1)c1ccccc1`, half-maximal inhibition (IC50) was put at 2000 nM. With `C#Cc1cccc(NC2CC(Nc3cccc(-c4cn([C@H](CNCc5cccc(Br)c5)Cc5ccccc5)nn4)c3)C(O)CC2O)c1` (mixture of isomers) the figure was 2400 nM; with `C#Cc1cccc(NC2CC(O)C(Nc3cccc(-c4cn([C@H](CNCc5cccc(Br)c5)Cc5ccccc5)nn4)c3)CC2O)c1` (mixture of isomers), 3400 nM.
